Experimental data published in the OligoGym collection.
Oligonucleotides are given in HELM: sugar(base)linkage, 5' to 3'; d 2'-deoxyribose, r ribose, m 2'-O-methylribose, p phosphate. ss, as = sense and antisense strand
Further: test concentration or dose not given here.

Each substance was assayed against TMEM63B (assay: reporter assay of Huesken 2005). Conditions: siRNA.
Substance “RNA1{r(U)p.r(C)p.r(G)p.r(U)p.r(C)p.r(C)p.r(U)p.r(C)p.r(U)p.r(U)p.r(C)p.r(A)p.r(U)p.r(C)p.r(C)p.r(U)p.r(C)p.r(C)p.r(U)p.d(T)p.d(T)}|RNA2{r(A)p.r(G)p.r(G)p.r(A)p.r(G)p.r(G)p.r(A)p.r(U)p.r(G)p.r(A)p.r(A)p.r(G)p.r(A)p.r(G)p.r(G)p.r(A)p.r(C)p.r(G)p.r(A)p.d(C)p.d(A)}$$$RNA1{StrandType:ss}|RNA2{StrandType:as}$” has a normalised inhibition (eCFP-eYFP dual reporter) of 55.8%. “RNA1{r(U)p.r(C)p.r(U)p.r(G)p.r(G)p.r(G)p.r(G)p.r(A)p.r(G)p.r(A)p.r(A)p.r(C)p.r(A)p.r(G)p.r(G)p.r(A)p.r(C)p.r(A)p.r(A)p.d(T)p.d(T)}|RNA2{r(U)p.r(U)p.r(G)p.r(U)p.r(C)p.r(C)p.r(U)p.r(G)p.r(U)p.r(U)p.r(C)p.r(U)p.r(C)p.r(C)p.r(C)p.r(C)p.r(A)p.r(G)p.r(A)p.d(G)p.d(C)}$$$RNA1{StrandType:ss}|RNA2{StrandType:as}$” showed a normalised inhibition (eCFP-eYFP dual reporter) of 68%. Work on “RNA1{r(U)p.r(C)p.r(U)p.r(G)p.r(U)p.r(C)p.r(U)p.r(C)p.r(U)p.r(G)p.r(C)p.r(C)p.r(A)p.r(C)p.r(G)p.r(U)p.r(C)p.r(U)p.r(G)p.d(T)p.d(T)}|RNA2{r(C)p.r(A)p.r(G)p.r(A)p.r(C)p.r(G)p.r(U)p.r(G)p.r(G)p.r(C)p.r(A)p.r(G)p.r(A)p.r(G)p.r(A)p.r(C)p.r(A)p.r(G)p.r(A)p.d(T)p.d(G)}$$$RNA1{StrandType:ss}|RNA2{StrandType:as}$” yielded a normalised inhibition (eCFP-eYFP dual reporter) of 68.3%. With “RNA1{r(U)p.r(C)p.r(U)p.r(U)p.r(C)p.r(A)p.r(U)p.r(C)p.r(C)p.r(U)p.r(C)p.r(C)p.r(U)p.r(C)p.r(U)p.r(U)p.r(C)p.r(U)p.r(U)p.d(T)p.d(T)}|RNA2{r(A)p.r(A)p.r(G)p.r(A)p.r(A)p.r(G)p.r(A)p.r(G)p.r(G)p.r(A)p.r(G)p.r(G)p.r(A)p.r(U)p.r(G)p.r(A)p.r(A)p.r(G)p.r(A)p.d(G)p.d(G)}$$$RNA1{StrandType:ss}|RNA2{StrandType:as}$” the normalised inhibition (eCFP-eYFP dual reporter) was 58.4%. Work on “RNA1{r(U)p.r(G)p.r(A)p.r(A)p.r(U)p.r(G)p.r(A)p.r(G)p.r(A)p.r(A)p.r(G)p.r(C)p.r(C)p.r(U)p.r(C)p.r(U)p.r(U)p.r(G)p.r(G)p.d(T)p.d(T)}|RNA2{r(C)p.r(C)p.r(A)p.r(A)p.r(G)p.r(A)p.r(G)p.r(G)p.r(C)p.r(U)p.r(U)p.r(C)p.r(U)p.r(C)p.r(A)p.r(U)p.r(U)p.r(C)p.r(A)p.d(C)p.d(C)}$$$RNA1{StrandType:ss}|RNA2{StrandType:as}$” yielded a normalised inhibition (eCFP-eYFP dual reporter) of 39.5%. In the case of “RNA1{r(U)p.r(G)p.r(A)p.r(C)p.r(C)p.r(A)p.r(A)p.r(A)p.r(G)p.r(G)p.r(G)p.r(A)p.r(C)p.r(A)p.r(A)p.r(U)p.r(G)p.r(G)p.r(U)p.d(T)p.d(T)}|RNA2{r(A)p.r(C)p.r(C)p.r(A)p.r(U)p.r(U)p.r(G)p.r(U)p.r(C)p.r(C)p.r(C)p.r(U)p.r(U)p.r(U)p.r(G)p.r(G)p.r(U)p.r(C)p.r(A)p.d(A)p.d(A)}$$$RNA1{StrandType:ss}|RNA2{StrandType:as}$”, the normalised inhibition (eCFP-eYFP dual reporter) is reported as 70.9%. Work on “RNA1{r(U)p.r(G)p.r(C)p.r(A)p.r(C)p.r(A)p.r(A)p.r(G)p.r(U)p.r(G)p.r(C)p.r(U)p.r(A)p.r(C)p.r(A)p.r(C)p.r(U)p.r(U)p.r(U)p.d(T)p.d(T)}|RNA2{r(A)p.r(A)p.r(A)p.r(G)p.r(U)p.r(G)p.r(U)p.r(A)p.r(G)p.r(C)p.r(A)p.r(C)p.r(U)p.r(U)p.r(G)p.r(U)p.r(G)p.r(C)p.r(A)p.d(T)p.d(G)}$$$RNA1{StrandType:ss}|RNA2{StrandType:as}$” yielded a normalised inhibition (eCFP-eYFP dual reporter) of 99.1%. Substance “RNA1{r(U)p.r(G)p.r(C)p.r(A)p.r(G)p.r(C)p.r(G)p.r(A)p.r(G)p.r(U)p.r(C)p.r(C)p.r(C)p.r(U)p.r(G)p.r(C)p.r(A)p.r(C)p.r(A)p.d(T)p.d(T)}|RNA2{r(U)p.r(G)p.r(U)p.r(G)p.r(C)p.r(A)p.r(G)p.r(G)p.r(G)p.r(A)p.r(C)p.r(U)p.r(C)p.r(G)p.r(C)p.r(U)p.r(G)p.r(C)p.r(A)p.d(G)p.d(G)}$$$RNA1{StrandType:ss}|RNA2{StrandType:as}$” has a normalised inhibition (eCFP-eYFP dual reporter) of 25.9%. In the case of “RNA1{r(U)p.r(G)p.r(C)p.r(C)p.r(A)p.r(C)p.r(C)p.r(C)p.r(G)p.r(A)p.r(C)p.r(G)p.r(C)p.r(C)p.r(C)p.r(U)p.r(C)p.r(A)p.r(C)p.d(T)p.d(T)}|RNA2{r(G)p.r(U)p.r(G)p.r(A)p.r(G)p.r(G)p.r(G)p.r(C)p.r(G)p.r(U)p.r(C)p.r(G)p.r(G)p.r(G)p.r(U)p.r(G)p.r(G)p.r(C)p.r(A)p.d(T)p.d(C)}$$$RNA1{StrandType:ss}|RNA2{StrandType:as}$”, the normalised inhibition (eCFP-eYFP dual reporter) is reported as 12.7%. “RNA1{r(U)p.r(G)p.r(C)p.r(C)p.r(G)p.r(U)p.r(G)p.r(G)p.r(G)p.r(G)p.r(A)p.r(G)p.r(C)p.r(C)p.r(A)p.r(C)p.r(G)p.r(C)p.r(C)p.d(T)p.d(T)}|RNA2{r(G)p.r(G)p.r(C)p.r(G)p.r(U)p.r(G)p.r(G)p.r(C)p.r(U)p.r(C)p.r(C)p.r(C)p.r(C)p.r(A)p.r(C)p.r(G)p.r(G)p.r(C)p.r(A)p.d(G)p.d(G)}$$$RNA1{StrandType:ss}|RNA2{StrandType:as}$” gave a normalised inhibition (eCFP-eYFP dual reporter) of 62.7%. With “RNA1{r(U)p.r(G)p.r(C)p.r(U)p.r(G)p.r(C)p.r(C)p.r(U)p.r(G)p.r(U)p.r(C)p.r(A)p.r(A)p.r(C)p.r(U)p.r(U)p.r(C)p.r(U)p.r(C)p.d(T)p.d(T)}|RNA2{r(G)p.r(A)p.r(G)p.r(A)p.r(A)p.r(G)p.r(U)p.r(U)p.r(G)p.r(A)p.r(C)p.r(A)p.r(G)p.r(G)p.r(C)p.r(A)p.r(G)p.r(C)p.r(A)p.d(C)p.d(G)}$$$RNA1{StrandType:ss}|RNA2{StrandType:as}$” the normalised inhibition (eCFP-eYFP dual reporter) was 60.5%. With “RNA1{r(U)p.r(G)p.r(G)p.r(G)p.r(A)p.r(G)p.r(A)p.r(A)p.r(C)p.r(C)p.r(A)p.r(C)p.r(C)p.r(A)p.r(U)p.r(U)p.r(G)p.r(C)p.r(C)p.d(T)p.d(T)}|RNA2{r(G)p.r(G)p.r(C)p.r(A)p.r(A)p.r(U)p.r(G)p.r(G)p.r(U)p.r(G)p.r(G)p.r(U)p.r(U)p.r(C)p.r(U)p.r(C)p.r(C)p.r(C)p.r(A)p.d(A)p.d(A)}$$$RNA1{StrandType:ss}|RNA2{StrandType:as}$” the normalised inhibition (eCFP-eYFP dual reporter) was 43.8%. For “RNA1{r(U)p.r(G)p.r(G)p.r(U)p.r(G)p.r(C)p.r(U)p.r(U)p.r(C)p.r(U)p.r(C)p.r(G)p.r(G)p.r(C)p.r(C)p.r(C)p.r(U)p.r(C)p.r(C)p.d(T)p.d(T)}|RNA2{r(G)p.r(G)p.r(A)p.r(G)p.r(G)p.r(G)p.r(C)p.r(C)p.r(G)p.r(A)p.r(G)p.r(A)p.r(A)p.r(G)p.r(C)p.r(A)p.r(C)p.r(C)p.r(A)p.d(C)p.d(A)}$$$RNA1{StrandType:ss}|RNA2{StrandType:as}$”, the normalised inhibition (eCFP-eYFP dual reporter) was 65.1%. With “RNA1{r(U)p.r(G)p.r(U)p.r(G)p.r(U)p.r(A)p.r(A)p.r(A)p.r(U)p.r(G)p.r(C)p.r(C)p.r(A)p.r(G)p.r(G)p.r(G)p.r(C)p.r(U)p.r(G)p.d(T)p.d(T)}|RNA2{r(C)p.r(A)p.r(G)p.r(C)p.r(C)p.r(C)p.r(U)p.r(G)p.r(G)p.r(C)p.r(A)p.r(U)p.r(U)p.r(U)p.r(A)p.r(C)p.r(A)p.r(C)p.r(A)p.d(C)p.d(G)}$$$RNA1{StrandType:ss}|RNA2{StrandType:as}$” the normalised inhibition (eCFP-eYFP dual reporter) was 66.8%.
